Reference: US4261989A, “Geldanamycin derivatives and antitumor drug” (Kaken Chemical Co. Ltd., priority 1979, dated 1981)

What follows are compounds tested on cancer cell W-2K-11 (assay: Growth inhibition of cancer cell W-2K-11 (percent inhibition of cell multiplication, Table 2)). Conditions: Mus musculus, 48 h, read-out: Percent inhibition (%).
Type: cell-based, mouse
Procedure: Cancer cell W-2K-11 was obtained by transforming fibroblast C3H-2K clone derived from kidney of mouse by cancerogenic virus. The cancer cell W-2K-11 was cultured by the following method.
(1) Preparation of culture medium
9.4 Gram of Eagle's MEM culture media (manufactured by Nissui Seiyaku K. K.) was dissolved in 900 ml. of distilled water and the solution was sterilized under high pressure at 120° C. for 15 minutes and cooled. 100 Ml. of calf serum and 3-5 ml. of 10% aqueous solution of sodium bicarbonate were added to the solution to adjust pH to 7.1-7.2. 10 Ml. of an aqueous solution of L-glutamine (2.92 g./100 ml.) filtered by a millipore filter was added just before the use of the solution as culture medium.
(2) Preparation of transplanted cell solution
The cancer cell W-2K-11 stored in a freezer at -80° C. was melted at room temperature and treated by a centrifugal separator at 670 g. for 5 minutes. The precipitated cell was dispersed in 50 ml. of the culture medium (1). The suspension was charged into Roux flask and cultured at 37° C. The multiplication of the cells was initiated and accomplished after 3 to 4 days. The cultured mixture was decanted and 10 ml. of 0.2% trypsin solution was added and the mixture was kept at room temperature for 2 to 3 minutes and the trypsin mixture was decanted and then, 50 ml. of the culture medium (1) was added to prepare a suspension of cells.
(3) Incubation of cells and addition of sample
1.8 Ml. of the suspension of cells (2) was charged into each Petri dish and incubated in a carbon dioxide gas incubator (5% of CO2; 95% of air) at 37° C. Twenty four hours after the initiation of the incubation, 0.2 ml. of each ethanol solution of each sample was added, and the incubation was continued. Forty eight hours after the addition of the sample, numbers of survival cells were counted under a microscopic observation and each percent inhibition of cell multiplication was calculated. [formula]
COC1/C=C\C=C(/C)C(=O)NC2=CC(=O)C(N3CC3)=C(CC(C)CC(OC)C(O)C(C)/C=C(\C)C1OC(N)=O)C2=O (centres unmarked) [Example 2, 17-ethyleneimino-Geldenamycin] showed an inhibition at 1 µg/mL of 97%.
COC1/C=C\C=C(/C)C(=O)NC2=CC(=O)C(NCCCl)=C(CC(C)CC(OC)C(O)C(C)/C=C(\C)C1OC(N)=O)C2=O (centres unmarked) [Example 20] was tested, and the inhibition at 1 µg/mL was 98%.
CCCCCNC1=C2CC(C)CC(OC)C(O)C(C)/C=C(\C)C(OC(N)=O)C(OC)/C=C\C=C(/C)C(=O)NC(=CC1=O)C2=O (centres unmarked) [Example 6] was tested, and the inhibition at 1 µg/mL was 90%.
With COC1/C=C\C=C(/C)C(=O)NC2=CC(=O)C(NCC(C)C)=C(CC(C)CC(OC)C(O)C(C)/C=C(\C)C1OC(N)=O)C2=O (centres unmarked) [Example 12] the inhibition at 1 µg/mL was 90%.
In the case of COC1C=CC=C(C)C(=O)NC2=CC(=O)C(NCCc3ccccn3)=C(CC(C)CC(OC)C(O)C(C)C=C(C)C1OC(N)=O)C2=O (centres unmarked) [Example 31], the inhibition at 5 µg/mL is reported as 93%.
CNC(=O)OC1C(C)=CC(C)C(O)C(OC)CC(C)CC2=C(OC)C(=O)C=C(N=C(OC)C(C)=CC=CC1OC)C2=O (centres unmarked) [Example 44, 1-O-methyl-7-OCONH-methyl-Geldanamycin] was tested, and the inhibition at 1 µg/mL was 94% and the inhibition at 10 µg/mL was 80%.
COC1C=CC=C(C)C(=O)NC2=CC(=O)C(NCc3ccncc3)=C(CC(C)CC(OC)C(O)C(C)C=C(C)C1OC(N)=O)C2=O (centres unmarked) [Example 30] showed an inhibition at 5 µg/mL of 95%.
With CCCCCCCCCCNC1=C2CC(C)CC(OC)C(O)C(C)/C=C(\C)C(OC(N)=O)C(OC)/C=C\C=C(/C)C(=O)NC(=CC1=O)C2=O (centres unmarked) [Example 10] the inhibition at 10 µg/mL was 48%.
Compound COC1=C2CC(C)CC(OC)C(O)C(C)C=C(C)C(OC(N)=O)C(OC)C=CC=C(C)C(=O)NC(=C(I)C1=O)C2=O (centres unmarked) [Example 38, 19-iodo-Geldanamycin] has an inhibition at 5 µg/mL of 95%.

Same assay, conditions: Mus musculus; concentration 0.5 μg/ml; 48 hours after addition of sample; W-2K-11 cells
Work on COCCNC1=C2CC(C)CC(OC)C(O)C(C)C=C(C)C(OC(N)=O)C(OC)C=CC=C(C)C(=O)NC(=CC1=O)C2=O (centres unmarked) [Example 33] yielded an inhibition at 0.5 µg/mL of 95%.

Same assay, conditions: Mus musculus; concentration 1 μg/ml; 48 hours after addition of sample; W-2K-11 cells; read-out: Percent inhibition (%)
Work on CNC(=O)OC1C(C)=CC(C)C(O)C(OC)CC(C)CC2=C(OC)C(=O)C=C(C2=O)N(C)C(=O)C(C)=CC=CC1OC (centres unmarked) [Example 42, 21-N-methyl-7-OCONH-methyl-Geldanamycin] yielded an inhibition at 1 µg/mL of 82%.
For COC1=NC2=CC(=O)C(OC)=C(CC(C)CC(OC)C(O)C(C)C=C(C)C(OC(N)=O)C(OC)C=CC=C1C)C2=O (centres unmarked) [Example 40, 1-O-methyl-Geldanamycin], the inhibition at 1 µg/mL was 80%.
With CCCCNC1=C2CC(C)CC(OC)C(O)C(C)/C=C(\C)C(OC(N)=O)C(OC)/C=C\C=C(/C)C(=O)NC(=CC1=O)C2=O (centres unmarked) [Example 5] the inhibition at 1 µg/mL was 85%.
In the case of CCCCCCNC1=C2CC(C)CC(OC)C(O)C(C)/C=C(\C)C(OC(N)=O)C(OC)/C=C\C=C(/C)C(=O)NC(=CC1=O)C2=O (centres unmarked) [Example 7], the inhibition at 1 µg/mL is reported as 90%.
COC1/C=C\C=C(/C)C(=O)NC2=CC(=O)C(NC3CC3)=C(CC(C)CC(OC)C(O)C(C)/C=C(\C)C1OC(N)=O)C2=O (centres unmarked) [Example 13] was tested, and the inhibition at 1 µg/mL was 94%.
With CCCNC1=C2CC(C)CC(OC)C(O)C(C)/C=C(\C)C(OC(N)=O)C(OC)/C=C\C=C(/C)C(=O)NC(=CC1=O)C2=O (centres unmarked) [Example 1, 17-n-propylamino-Geldanamycin] the inhibition at 1 µg/mL was 92%.
Work on C=CCNC1=C2CC(C)CC(OC)C(O)C(C)/C=C(\C)C(OC(N)=O)C(OC)/C=C\C=C(/C)C(=O)NC(=CC1=O)C2=O (centres unmarked) [Example 22] yielded an inhibition at 1 µg/mL of 93%.
COC1C=CC=C(C)C(=O)NC2=CC(=O)C(NCc3ccccc3)=C(CC(C)CC(OC)C(O)C(C)C=C(C)C1OC(N)=O)C2=O (centres unmarked) [Example 23] was tested, and the inhibition at 1 µg/mL was 88%.
Compound COC1/C=C\C=C(/C)C(=O)NC2=CC(=O)C(NC3CCCC3)=C(CC(C)CC(OC)C(O)C(C)/C=C(\C)C1OC(N)=O)C2=O (centres unmarked) [Example 14] has an inhibition at 1 µg/mL of 98%.
For COC1/C=C\C=C(/C)C(=O)NC2=CC(=O)C(NC3CCCCC3)=C(CC(C)CC(OC)C(O)C(C)/C=C(\C)C1OC(N)=O)C2=O (centres unmarked) [Example 15], the inhibition at 1 µg/mL was 98%.
With COC1/C=C\C=C(/C)C(=O)NC2=CC(=O)C(NCCO)=C(CC(C)CC(OC)C(O)C(C)/C=C(\C)C1OC(N)=O)C2=O (centres unmarked) [Example 18] the inhibition at 1 µg/mL was 98%.
For CNC(=O)OC1C(C)=CC(C)C(O)C(OC)CC(C)CC2=C(OC)C(=O)C=C(NC(=O)C(C)=CC=CC1OC)C2=O (centres unmarked) [Example 43, 7-OCONH-methyl Geldanamycin], the inhibition at 1 µg/mL was 60%.
With CCCCCCCNC1=C2CC(C)CC(OC)C(O)C(C)/C=C(\C)C(OC(N)=O)C(OC)/C=C\C=C(/C)C(=O)NC(=CC1=O)C2=O (centres unmarked) [Example 8] the inhibition at 1 µg/mL was 96%.

Same assay, conditions: Mus musculus; concentration 5 μg/ml; 48 hours after addition of sample; W-2K-11 cells; read-out: Percent inhibition (%)
Compound COC1C=CC=C(C)C(=O)NC2=CC(=O)C(NCCN3CCCC3)=C(CC(C)CC(OC)C(O)C(C)C=C(C)C1OC(N)=O)C2=O (centres unmarked) [Example 32] has an inhibition at 5 µg/mL of 84%.
In the case of COC1=C2CC(C)CC(OC)C(O)C(C)C=C(C)C(OC(N)=O)C(OC)C=CC=C(C)C(=O)NC(=C(Cl)C1=O)C2=O (centres unmarked) [Example 39, 19-chloro-Geldanamycin], the inhibition at 5 µg/mL is reported as 91%.
With COC1/C=C\C=C(/C)C(=O)NC2=CC(=O)C(NCCN)=C(CC(C)CC(OC)C(O)C(C)/C=C(\C)C1OC(N)=O)C2=O (centres unmarked) [Example 4] the inhibition at 5 µg/mL was 57%.
COC1C=CC=C(C)C(=O)NC2=CC(=O)C(NCc3ccccn3)=C(CC(C)CC(OC)C(O)C(C)C=C(C)C1OC(N)=O)C2=O (centres unmarked) [Example 28] gave an inhibition at 5 µg/mL of 90%.
With COC1C=CC=C(C)C(=O)NC2=CC(=O)C(NCCN3CCOCC3)=C(CC(C)CC(OC)C(O)C(C)C=C(C)C1OC(N)=O)C2=O (centres unmarked) [Example 26] the inhibition at 5 µg/mL was 93%.
Compound COC1=C2CC(C)CC(OC)C(O)C(C)C=C(C)C(OC(N)=O)C(OC)C=CC=C(C)C(=O)NC(=C(Br)C1=O)C2=O (centres unmarked) [Example 37, 19-bromo-Geldanamycin] has an inhibition at 5 µg/mL of 84%.

Same assay, conditions: Mus musculus; concentration 10 μg/ml; 48 hours after addition of sample; W-2K-11 cells; read-out: Percent inhibition (%)
For CNC(=O)OC1C(C)=CC(C)C(O)C(OC)CC(C)CC2=C(OC)C(=O)C=C(C2=O)N(C)C(=O)C(C)=CC=CC1OC (centres unmarked) [Example 42, 21-N-methyl-7-OCONH-methyl-Geldanamycin], the inhibition at 10 µg/mL was 94%.
For COC1=NC2=CC(=O)C(OC)=C(CC(C)CC(OC)C(O)C(C)C=C(C)C(OC(N)=O)C(OC)C=CC=C1C)C2=O (centres unmarked) [Example 40, 1-O-methyl-Geldanamycin], the inhibition at 10 µg/mL was 95%.
In the case of COC1/C=C\C=C(/C)C(=O)NC2=CC(=O)C(NC3CCCCCC3)=C(CC(C)CC(OC)C(O)C(C)/C=C(\C)C1OC(N)=O)C2=O (centres unmarked) [Example 16], the inhibition at 10 µg/mL is reported as 98%.
Work on COC1C=CC=C(C)C(=O)NC2=CC(=O)C(N3CCCC3)=C(CC(C)CC(OC)C(O)C(C)C=C(C)C1OC(N)=O)C2=O (centres unmarked) [Example 25] yielded an inhibition at 10 µg/mL of 97%.
With COC1/C=C\C=C(/C)C(=O)NC2=CC(=O)C(NCCCCN)=C(CC(C)CC(OC)C(O)C(C)/C=C(\C)C1OC(N)=O)C2=O (centres unmarked) [Example 21] the inhibition at 10 µg/mL was 53%.
With CCCCCCCCNC1=C2CC(C)CC(OC)C(O)C(C)/C=C(\C)C(OC(N)=O)C(OC)/C=C\C=C(/C)C(=O)NC(=CC1=O)C2=O (centres unmarked) [Example 9] the inhibition at 10 µg/mL was 67%.
For CCCCCCCCCCCCNC1=C2CC(C)CC(OC)C(O)C(C)/C=C(\C)C(OC(N)=O)C(OC)/C=C\C=C(/C)C(=O)NC(=CC1=O)C2=O (centres unmarked) [Example 11], the inhibition at 10 µg/mL was 79%.
In the case of COC1/C=C\C=C(/C)C(=O)NC2=CC(=O)C(NC3CCCC3)=C(CC(C)CC(OC)C(O)C(C)/C=C(\C)C1OC(N)=O)C2=O (centres unmarked) [Example 14], the inhibition at 10 µg/mL is reported as 97%.
COC1/C=C\C=C(/C)C(=O)NC2=CC(=O)C(NCCOCCO)=C(CC(C)CC(OC)C(O)C(C)/C=C(\C)C1OC(N)=O)C2=O (centres unmarked) [Example 19] was tested, and the inhibition at 10 µg/mL was 88%.
CNC(=O)OC1C(C)=CC(C)C(O)C(OC)CC(C)CC2=C(OC)C(=O)C=C(NC(=O)C(C)=CC=CC1OC)C2=O (centres unmarked) [Example 43, 7-OCONH-methyl Geldanamycin] showed an inhibition at 10 µg/mL of 96%.

Same assay, conditions: concentration 1 μg/ml; 48 hours after addition of sample; W-2K-11 cells
“17-demethoxy-17,19-bisdimethylamino-Geldenamycin [Example 35]” was tested, and the “Percent inhibition (%)” value was 92%.

Same assay, conditions: concentration 5 μg/ml; 48 hours after addition of sample; W-2K-11 cells
CO[C@H]1/C=C\C=C(/C)C(=O)NC2=CC(=O)C(NCCN3CCCCC3)=C(C[C@@H](C)C[C@H](OC)[C@H](O)[C@@H](C)/C=C(\C)[C@@H]1OC(N)=O)C2=O [Example 27] was tested, and the “Percent inhibition (%)” value was 57%.

Same assay, conditions: concentration 10 μg/ml; 48 hours after addition of sample; W-2K-11 cells
COC1C=CC=C(C)C(=O)NC2=CC(=O)C(NCC34CC5CC(CC(C5)C3)C4)=C(CC(C)CC(OC)C(O)C(C)C=C(C)C1OC(N)=O)C2=O (centres unmarked) [Example 17] was tested, and the “Percent inhibition (%)” value was 98%.
In the case of “17-demethoxy-17,19-bisdimethylamino-Geldenamycin [Example 35]”, the “Percent inhibition (%)” value is reported as 97%.
